Test results from PMC7318554 (Journal of medicinal chemistry, 2020).
Like-named read-outs stand apart in the source and are kept apart here. One block for each compound: values may come before it.

How the values were obtained:
p-EGFR, p-AKT [1] = experiment: Western blotting of downstream signaling; type: cell-based
p-EGFR, p-AKT [2] = experiment: Western blotting of downstream signaling; type: cell-based; remark: listed apart in the source
H3255 cells = experiment: Cell proliferation assay; type: cell-based; conditions: 3 days
WT EGFR [3] = biological target: T1, WT EGFR (Homo sapiens, UniProt P00533); experiment: Western blotting of WT EGFR protein in H1299 cells; type: cell-based; conditions: 8 h serum-free, 16 h treatment
EGFR WT = EGFR WT (Homo sapiens, UniProt P00533); experiment: KINOMEscan competition binding assay, EGFR WT
WT EGFR [4] = biological target: T1, WT EGFR; experiment: Western blotting of WT EGFR protein in OVCAR-8 cells; type: cell-based; conditions: 8 h serum-free, 16 h treatment
EGFR L858R [5] = biological target: T2, EGFR L858R (Homo sapiens, UniProt P00533, L858R); experiment: KINOMEscan competition binding assay, EGFR L858R; conditions: EGFR L858R mutant
in vivo = conditions: male, Swiss Albino, mouse, ip, 50 mg/kg
EGFR L858R [6] = biological target: T2, EGFR L858R; experiment: Western blotting of EGFR protein in H3255 cells; type: cell-based; conditions: for reversibility of EGFR degradation upon washout / maximum EGFR protein degradation / hook effect / effect on mutant EGFR protein level: H3255 cells; for reversibility of EGFR degradation upon washout: 12 h degrader treatment, then washout; for maximum EGFR protein degradation: at a concentration as low as 50 nM, 16 h; for hook effect: highest concentration 10 μM (PROTAC3: 1 and 10 μM); for effect on mutant EGFR protein level: 8 h serum-free, 16 h treatment, gefitinib at 1 μM
EGFR = EGFR (Homo sapiens, UniProt P00533, DEL746-750); experiment: Global label-free quantitative proteomics in HCC-827 cells; type: cell-based; conditions: HCC-827 cells starved 8 h; 100 nM for 16 h
[7] = biological target: EGFR e19d (EGFR mutant with exon 19 deletion) (Homo sapiens, UniProt P00533, DEL746-750); experiment: Western blotting of EGFR protein in HCC-827 cells; type: cell-based; conditions: for time after washout at which the EGFR protein level was recovered: 12 h degrader treatment, then washout; for maximum EGFR protein degradation: at a concentration as low as 50 nM, 16 h; for hook effect: highest concentration 10 μM (PROTAC3: 1 and 10 μM)
[8] = Mouse pharmacokinetic study; conditions: mice; single IP injection 50 mg/kg
WT EGFR [9] = biological target: T1, WT EGFR; conditions: previous finding; cited from earlier work
[10] = 100 nM, after 8 h serum starvation
[11] = HCC-827 cells, 12 h degrader treatment, then washout
[12] = HCC-827 cells, 16 h treatment, gefitinib at 1 μM
[13] = H3255 cells, 16 h treatment, gefitinib at 1 μM

SMILES: COc1cc2ncnc(Nc3ccc(F)c(Cl)c3)c2cc1OCCCN1CCN(C(=O)CCCCCCCCCC(=O)N[C@H](C(=O)N2C[C@H](O)C[C@H]2C(=O)NCc2ccc(-c3scnc3C)cc2)C(C)(C)C)CC1 [Compound 6, (2S,4R)-1-((S)-2-(11-(4-(3-((4-((3-Chloro-4-fluorophenyl)amino)-7-methoxyquinazolin-6-yl)oxy)propyl)piperazin-1-yl)-11-oxounde-canamido)-3,3-dimethylbutanoyl)-4-hydroxy-N-(4-(4-methylthiazol-5-yl)benzyl)pyrrolidine-2-carboxamide]
- effect on AKT protein levels (p-EGFR, p-AKT [1]): did not affect the AKT protein levels
- inhibition of EGFR autophosphorylation (p-EGFR) and AKT phosphorylation (p-AKT) (p-EGFR, p-AKT [1]): potently inhibited
- time after washout at which p-AKT was recovered (p-EGFR, p-AKT [1]): 48 h
- time after washout at which p-EGFR was recovered (p-EGFR, p-AKT [1]): 24 h
- treatment time at which robust inhibition of p-AKT was observed (p-EGFR, p-AKT [1]): 1 h
- effect on AKT protein levels (p-EGFR, p-AKT [2]): did not affect the AKT protein levels
- inhibition of EGFR autophosphorylation (p-EGFR) and AKT phosphorylation (p-AKT) (p-EGFR, p-AKT [2]): potently inhibited
- cell growth inhibition (H3255 cells): effectively inhibited the growth of H3255 cells
- potency at cell growth inhibition compared with PROTAC3 (H3255 cells): more potent than the previously reported PROTAC3
- potency at cell growth inhibition compared with gefitinib (H3255 cells): less potent
- effect on WT EGFR protein levels (WT EGFR [3]): did not significantly reduce the WT EGFR protein levels
- weaker binding affinity compared to gefitinib (EGFR WT): approximately 10 fold
- effect on WT EGFR protein levels (WT EGFR [4]): did not significantly reduce the WT EGFR protein levels
- weaker binding affinity compared to gefitinib (EGFR L858R [5]): approximately 10 fold
- concentration at 24 h (in vivo): ~1000 nM
- reversibility of EGFR degradation upon washout (EGFR L858R [6]): reversible
- maximum EGFR protein degradation (EGFR L858R [6]): over 95%
- hook effect (EGFR L858R [6]): undetectable
- EGFR protein degraded (EGFR): Over 75%
- treatment time to near-complete / maximum EGFR degradation [7, 10]: around 12 h
- time after washout at which the EGFR protein level was recovered [7]: 24 h
- maximum EGFR protein degradation [7]: over 95%
- hook effect [7]: slight “hook effect”
- plasma concentration maintained over 8 h [8]: approximately 5 μM
- tolerability [8]: well tolerated, and no clinical signs were observed

SMILES: COc1cc2ncnc(Nc3ccc(F)c(Cl)c3)c2cc1OCCCN1CCN(CCC(=O)NCCCCCCCCOc2cccc3c2C(=O)N(C2CCC(=O)NC2=O)C3=O)CC1 (centres unmarked) [Compound 10, 3-(4-(3-((4-((3-Chloro-4-fluorophenyl)amino)-7-methoxyquinazolin-6-yl)oxy)propyl)piperazin-1-yl)-N-(8-((2-(2,6-dioxopiperidin-3-yl)-1,3-dioxoisoindolin-4-yl)oxy)octyl)propanamide]
- effect on AKT protein levels (p-EGFR, p-AKT [1]; HCC-827 cells): did not affect the AKT protein levels
- time after washout at which p-AKT was recovered (p-EGFR, p-AKT [1]; [11]): 48 h
- time after washout at which p-EGFR was recovered (p-EGFR, p-AKT [1]; [11]): 24 h
- inhibition of EGFR autophosphorylation (p-EGFR) and AKT phosphorylation (p-AKT) (p-EGFR, p-AKT [1]; [12]): potently inhibited
- effect on AKT protein levels (p-EGFR, p-AKT [2]; H3255 cells): did not affect the AKT protein levels
- inhibition of EGFR autophosphorylation (p-EGFR) and AKT phosphorylation (p-AKT) (p-EGFR, p-AKT [2]; [13]): potently inhibited
- cell growth inhibition (H3255 cells): inhibited the growth of H3255 cell
- potency at cell growth inhibition compared with PROTAC3 (H3255 cells): not as potent as compound 6 and PROTAC3
- potency at cell growth inhibition compared with gefitinib (H3255 cells): less potent
- effect on WT EGFR protein levels (WT EGFR [3]): did not significantly reduce the WT EGFR protein levels
- effect on WT EGFR protein levels (WT EGFR [4]): did not significantly reduce the WT EGFR protein levels
- weaker binding affinity compared to gefitinib (EGFR L858R [5]): 5 fold
- reversibility of EGFR degradation upon washout (EGFR L858R [6]): reversible
- maximum EGFR protein degradation (EGFR L858R [6]): over 95%
- hook effect (EGFR L858R [6]): undetectable
- EGFR protein degraded (EGFR): Over 75%
- time to reduce the half-maximum of the EGFR protein level [7, 10]: 3.5 h
- treatment time to near-complete / maximum EGFR degradation [7, 10]: 12 h
- time after washout at which the EGFR protein level was recovered [7]: 24 h
- maximum EGFR protein degradation [7]: over 95%
- hook effect [7]: slight “hook effect”
- highest plasma concentration [8]: approximately 500 nM
- time post dosing of the highest plasma concentration [8]: 8 h
- tolerability [8]: well tolerated, and no clinical signs were observed

- effect of 2 h pretreatment on EGFR degradation induced by compound 6 (EGFR L858R [6]): blocked
SMILES: COc1cc2ncnc(Nc3ccc(F)c(Cl)c3)c2cc1OCCCN1CCN(C(=O)CCCCCCCCCC(=O)N[C@H](C(=O)N2C[C@@H](O)C[C@@H]2C(=O)NCc2ccc(-c3scnc3C)cc2)C(C)(C)C)CC1 [Compound 27, (2R,4S)-1-((S)-2-(11-(4-(3-((4-((3-Chloro-4-fluorophenyl)amino)-7-methoxyquinazolin-6-yl)oxy)propyl)piperazin-1-yl)-11-oxoundecanamido)-3,3-dimethylbutanoyl)-4-hydroxy-N-(4-(4-methylthiazol-5-yl)benzyl)pyrrolidine-2-carboxamide]
- inhibition of EGFR autophosphorylation (p-EGFR) and AKT phosphorylation (p-AKT) (p-EGFR, p-AKT [1]): lower potency
- inhibition of EGFR autophosphorylation (p-EGFR) and AKT phosphorylation (p-AKT) (p-EGFR, p-AKT [2]): lower potency
- effect on mutant EGFR protein level (EGFR L858R [6]): did not significantly induce the degradation of EGFR mutants

SMILES: COc1cc2ncnc(Nc3ccc(F)c(Cl)c3)c2cc1OCCCN1CCN(CCC(=O)NCCCCCCCCOc2cccc3c2C(=O)N(C2CCC(=O)N(C)C2=O)C3=O)CC1 (centres unmarked) [Compound 28, 3-(4-(3-((4-((3-Chloro-4-fluorophenyl)amino)-7-methoxyquina-zolin-6-yl)oxy)propyl)piperazin-1-yl)-N-(8-((2-(1-methyl-2,6-dioxopiperidin-3-yl)-1,3-dioxoisoindolin-4-yl)oxy)octyl)propanamide]
- inhibition of EGFR autophosphorylation (p-EGFR) and AKT phosphorylation (p-AKT) (p-EGFR, p-AKT [1]; [12]): lower potency
- inhibition of EGFR autophosphorylation (p-EGFR) and AKT phosphorylation (p-AKT) (p-EGFR, p-AKT [2]; [13]): lower potency
- effect on mutant EGFR protein level (EGFR L858R [6]): did not significantly induce the degradation of EGFR mutants

SMILES: COc1cc2ncnc(Nc3ccc(F)c(Cl)c3)c2cc1OCCCCCOCCOCCC(=O)N[C@H](C(=O)N1C[C@H](O)C[C@H]1C(=O)NCc1ccc(-c2scnc2C)cc1)C(C)(C)C [PROTAC3, reference compound]
- potency at cell growth inhibition compared with gefitinib (H3255 cells): less potent
- degradation of the WT EGFR (WT EGFR [9]): did not degrade the WT EGFR
- hook effect (EGFR L858R [6]): much more significant hook effect
- hook effect [7]: much more significant hook effect

SMILES: Cc1ncsc1-c1ccc(CNC(=O)[C@@H]2C[C@@H](O)CN2C(=O)[C@@H](NC(=O)C2(C#N)CC2)C(C)(C)C)cc1 [VH-298, reference compound]
- effect of 2 h pretreatment on EGFR degradation induced by compound 6 (EGFR L858R [6]): blocked

SMILES: O=C1CCC(N2C(=O)c3ccccc3C2=O)C(=O)N1 (centres unmarked) [thalidomide, reference compound]
- effect of 2 h pretreatment on EGFR degradation induced by compound 10 (EGFR L858R [6]): blocked
